± gives the expanded uncertainty stated by the source.
Key:
[1] = 101.33 kPa, Liquid; for viscosity: Falling or rolling sphere viscometry; for speed of sound: Sing-around technique in a fixed-path interferometer; for mass density: Vibrating tube method
[2] = refractive index (Na D-line) (dimensionless); conditions: 101.33 kPa, Liquid, Standard Abbe refractometry

CC[n+]1ccccc1C.O=S(=O)([N-]S(=O)(=O)C(F)(F)F)C(F)(F)F
viscosity ([1]; 293.15 K): 97.02 ± 2.8 mPa·s
speed of sound ([1]; 293.15 K): 1310.9 ± 1.5 m/s
mass density ([1]; 293.15 K): 1510.22 ± 0.69 kg/m3
viscosity ([1]; 298.15 K): 75.84 ± 1.9 mPa·s
speed of sound ([1]; 298.15 K): 1299.5 ± 1.5 m/s
mass density ([1]; 298.15 K): 1505.35 ± 0.68 kg/m3
viscosity ([1]; 303.15 K): 60.69 ± 1.3 mPa·s
speed of sound ([1]; 303.15 K): 1288.5 ± 1.5 m/s
mass density ([1]; 303.15 K): 1500.5 ± 0.68 kg/m3
viscosity ([1]; 308.15 K): 49.76 ± 1.1 mPa·s
speed of sound ([1]; 308.15 K): 1277.3 ± 1.5 m/s
mass density ([1]; 308.15 K): 1495.66 ± 0.67 kg/m3
viscosity ([1]; 313.15 K): 41.04 ± 0.9 mPa·s
speed of sound ([1]; 313.15 K): 1266.3 ± 1.5 m/s
mass density ([1]; 313.15 K): 1490.85 ± 0.67 kg/m3
viscosity ([1]; 318.15 K): 34.3 ± 0.75 mPa·s
speed of sound ([1]; 318.15 K): 1255.4 ± 1.5 m/s
mass density ([1]; 318.15 K): 1486.06 ± 0.66 kg/m3
viscosity ([1]; 323.15 K): 29.05 ± 0.63 mPa·s
speed of sound ([1]; 323.15 K): 1244.6 ± 1.5 m/s
mass density ([1]; 323.15 K): 1481.29 ± 0.66 kg/m3
viscosity ([1]; 328.15 K): 24.86 ± 0.54 mPa·s
speed of sound ([1]; 328.15 K): 1234 ± 1.5 m/s
mass density ([1]; 328.15 K): 1476.54 ± 0.65 kg/m3
viscosity ([1]; 333.15 K): 21.51 ± 0.47 mPa·s
speed of sound ([1]; 333.15 K): 1223.4 ± 1.5 m/s
mass density ([1]; 333.15 K): 1471.81 ± 0.65 kg/m3
viscosity ([1]; 338.15 K): 18.71 ± 0.41 mPa·s
speed of sound ([1]; 338.15 K): 1213 ± 1.5 m/s
mass density ([1]; 338.15 K): 1467.11 ± 0.64 kg/m3
viscosity ([1]; 343.15 K): 16.54 ± 0.36 mPa·s
speed of sound ([1]; 343.15 K): 1202.7 ± 1.5 m/s
mass density ([1]; 343.15 K): 1462.42 ± 0.64 kg/m3
refractive index ([2]; 293.15 K): 1.44938 ± 0.00037
refractive index ([2]; 298.15 K): 1.44789 ± 0.00037
refractive index ([2]; 303.15 K): 1.4464 ± 0.00037
refractive index ([2]; 308.15 K): 1.44493 ± 0.00037
refractive index ([2]; 313.15 K): 1.44343 ± 0.00037
refractive index ([2]; 318.15 K): 1.44181 ± 0.00037
refractive index ([2]; 323.15 K): 1.44037 ± 0.00037
refractive index ([2]; 328.15 K): 1.4388 ± 0.00037
refractive index ([2]; 333.15 K): 1.43744 ± 0.00037
refractive index ([2]; 338.15 K): 1.43599 ± 0.00037
refractive index ([2]; 343.15 K): 1.43454 ± 0.00037

CC[n+]1ccccc1.O=S(=O)([N-]S(=O)(=O)C(F)(F)F)C(F)(F)F [1-ethylpyridinium bis[(trifluoromethyl)sulfonyl]imide]
viscosity ([1]; 293.15 K): 50.27 ± 1 mPa·s
speed of sound ([1]; 293.15 K): 1279.1 ± 1.5 m/s
mass density ([1]; 293.15 K): 1540.83 ± 0.72 kg/m3
viscosity ([1]; 298.15 K): 41.08 ± 0.9 mPa·s
speed of sound ([1]; 298.15 K): 1268.1 ± 1.5 m/s
mass density ([1]; 298.15 K): 1535.84 ± 0.71 kg/m3
viscosity ([1]; 303.15 K): 34.17 ± 0.75 mPa·s
speed of sound ([1]; 303.15 K): 1257.1 ± 1.5 m/s
mass density ([1]; 303.15 K): 1530.87 ± 0.71 kg/m3
viscosity ([1]; 308.15 K): 28.79 ± 0.63 mPa·s
speed of sound ([1]; 308.15 K): 1246.3 ± 1.5 m/s
mass density ([1]; 308.15 K): 1525.92 ± 0.7 kg/m3
viscosity ([1]; 313.15 K): 24.58 ± 0.54 mPa·s
speed of sound ([1]; 313.15 K): 1235.6 ± 1.5 m/s
mass density ([1]; 313.15 K): 1520.99 ± 0.7 kg/m3
viscosity ([1]; 318.15 K): 21.18 ± 0.46 mPa·s
speed of sound ([1]; 318.15 K): 1225 ± 1.5 m/s
mass density ([1]; 318.15 K): 1516.08 ± 0.69 kg/m3
viscosity ([1]; 323.15 K): 18.48 ± 0.4 mPa·s
speed of sound ([1]; 323.15 K): 1214.5 ± 1.5 m/s
mass density ([1]; 323.15 K): 1511.2 ± 0.69 kg/m3
viscosity ([1]; 328.15 K): 16.26 ± 0.35 mPa·s
speed of sound ([1]; 328.15 K): 1204.2 ± 1.5 m/s
mass density ([1]; 328.15 K): 1506.34 ± 0.68 kg/m3
viscosity ([1]; 333.15 K): 14.35 ± 0.31 mPa·s
speed of sound ([1]; 333.15 K): 1193.9 ± 1.5 m/s
mass density ([1]; 333.15 K): 1501.5 ± 0.68 kg/m3
viscosity ([1]; 338.15 K): 12.79 ± 0.28 mPa·s
speed of sound ([1]; 338.15 K): 1183.8 ± 1.5 m/s
mass density ([1]; 338.15 K): 1496.67 ± 0.67 kg/m3
viscosity ([1]; 343.15 K): 11.48 ± 0.25 mPa·s
speed of sound ([1]; 343.15 K): 1173.8 ± 1.5 m/s
mass density ([1]; 343.15 K): 1491.87 ± 0.67 kg/m3
refractive index ([2]; 293.15 K): 1.44227 ± 0.00037
refractive index ([2]; 298.15 K): 1.44091 ± 0.00037
refractive index ([2]; 303.15 K): 1.43939 ± 0.00037
refractive index ([2]; 308.15 K): 1.43788 ± 0.00037
refractive index ([2]; 313.15 K): 1.43637 ± 0.00037
refractive index ([2]; 318.15 K): 1.4349 ± 0.00037
refractive index ([2]; 323.15 K): 1.43339 ± 0.00037
refractive index ([2]; 328.15 K): 1.43193 ± 0.00037
refractive index ([2]; 333.15 K): 1.43048 ± 0.00037
refractive index ([2]; 338.15 K): 1.42905 ± 0.00037
refractive index ([2]; 343.15 K): 1.42762 ± 0.00037

From the NIST ThermoML archive (doi:10.1016/j.jct.2015.02.020)
